In patent EP4786469A1, “TRIAZOLE-CONTAINING COMPOUND, AND PREPARATION METHOD AND USE THEREFOR” (Tuojie Biotech (Shanghai) Co., Ltd., priority 2023, dated 2025):
Where two headings read alike, the source gives them in different places.

Target: human recombinant αvβ6 protein (Homo sapiens, UniProt P06756+P18564)
Assay: αvβ6 binding assay using fluorescence polarization (FP), competition with a fluorescently labeled RGD peptide
Protocol: αvβ6 binding assay using fluorescence polarization (FP) method The analysis was based on competition with a fluorescently labeled RGD peptide for binding to αvβ6. The binding abilities of the test compounds were evaluated and screened according to FP value changes.
The test compounds (3.5 µL) were added to a 384-well black plate. For each test compound, 12 concentration points were set. The highest concentration was 10 µM, and was serially diluted 3-fold. DMSO control wells were used to determine the maximum signal, and 500 nM compound CWHM-12 [drawing 318]
HY-18644) control wells were used as the minimum signal.Then, 3.5 µL of a 4× human recombinant αvβ6 protein working solution (Acrobiosystem) was added. After 15 min of incubation at room temperature, 7 µL of a 2× fluorescent RGD peptide solution (Sangon Biotech) was added to each well. After 1 h of incubation at room temperature, FP signals were read using Envision. GraphPad Prism was used to fit inhibition curves and calculate IC50 values.
The IC50 values (Z factor > 0.5) were calculated using the following formula: Curve fitting formula: Y = Bottom + (Top - Bottom)/(1 + 10^((LogIC50 - X) × Hill Slope)) X: logarithmic value of inhibitor concentration; Y: inhibition percentage; Bottom: minimum response; Top: maximum response; Hill Slope: curve slope. Table 1. Data on the abilities of the compounds (III-h')-(III-m') of the present disclosure to bind to αvβ6

[1] = 12 concentration points, highest 10 µM, read-out: αvβ6 IC50
[2] = read-out: αvβ6 IC50, 12 concentration points, highest 10 µM

Chain of human recombinant αvβ6 protein (P06756 31-992 limits assumed): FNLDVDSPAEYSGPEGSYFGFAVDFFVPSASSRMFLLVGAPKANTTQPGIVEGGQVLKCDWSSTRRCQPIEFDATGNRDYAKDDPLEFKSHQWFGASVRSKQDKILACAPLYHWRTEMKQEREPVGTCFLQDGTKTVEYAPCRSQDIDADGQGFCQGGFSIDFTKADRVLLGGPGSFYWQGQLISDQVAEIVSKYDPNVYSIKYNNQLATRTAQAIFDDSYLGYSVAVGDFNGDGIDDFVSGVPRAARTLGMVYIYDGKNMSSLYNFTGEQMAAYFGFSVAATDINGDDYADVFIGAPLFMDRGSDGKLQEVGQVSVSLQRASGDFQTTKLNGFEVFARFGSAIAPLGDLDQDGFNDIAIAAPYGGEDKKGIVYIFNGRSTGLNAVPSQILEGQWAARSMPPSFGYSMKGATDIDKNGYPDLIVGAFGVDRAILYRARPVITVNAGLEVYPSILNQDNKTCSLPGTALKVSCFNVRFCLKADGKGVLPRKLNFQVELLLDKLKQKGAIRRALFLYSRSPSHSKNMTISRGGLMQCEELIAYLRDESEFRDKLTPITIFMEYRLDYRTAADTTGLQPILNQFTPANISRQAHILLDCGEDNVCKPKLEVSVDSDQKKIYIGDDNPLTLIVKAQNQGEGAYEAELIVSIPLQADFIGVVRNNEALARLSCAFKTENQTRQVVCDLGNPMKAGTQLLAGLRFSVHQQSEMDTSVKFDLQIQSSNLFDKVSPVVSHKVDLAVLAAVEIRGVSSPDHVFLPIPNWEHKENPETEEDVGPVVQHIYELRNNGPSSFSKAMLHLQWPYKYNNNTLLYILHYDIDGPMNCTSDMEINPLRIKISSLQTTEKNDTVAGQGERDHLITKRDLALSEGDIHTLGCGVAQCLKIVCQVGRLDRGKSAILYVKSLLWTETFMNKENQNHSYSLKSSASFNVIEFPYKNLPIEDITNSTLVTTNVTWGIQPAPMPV
Chain of human recombinant αvβ6 protein (P18564 22-707 limits assumed): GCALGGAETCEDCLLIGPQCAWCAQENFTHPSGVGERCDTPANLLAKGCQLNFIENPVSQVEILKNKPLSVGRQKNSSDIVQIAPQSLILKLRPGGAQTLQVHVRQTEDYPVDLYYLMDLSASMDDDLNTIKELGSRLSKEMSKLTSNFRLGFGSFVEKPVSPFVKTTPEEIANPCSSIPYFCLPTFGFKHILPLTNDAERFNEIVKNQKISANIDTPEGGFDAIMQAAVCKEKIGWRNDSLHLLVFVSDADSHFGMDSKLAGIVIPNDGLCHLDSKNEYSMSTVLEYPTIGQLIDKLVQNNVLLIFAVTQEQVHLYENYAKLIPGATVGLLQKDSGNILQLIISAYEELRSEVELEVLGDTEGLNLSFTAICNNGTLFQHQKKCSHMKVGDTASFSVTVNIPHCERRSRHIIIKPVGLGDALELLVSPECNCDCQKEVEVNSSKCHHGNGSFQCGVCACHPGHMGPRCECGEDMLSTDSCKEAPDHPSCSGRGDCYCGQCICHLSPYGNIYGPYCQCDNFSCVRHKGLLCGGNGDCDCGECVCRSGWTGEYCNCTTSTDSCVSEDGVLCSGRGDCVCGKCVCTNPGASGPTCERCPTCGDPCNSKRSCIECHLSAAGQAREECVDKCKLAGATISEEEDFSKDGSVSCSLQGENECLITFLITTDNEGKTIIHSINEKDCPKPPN

Structure (SMILES) | IC50 [1] [nM] | IC50 [2] [nM]
Cc1ccnc(NCCCC(=O)NCC(=O)N[C@@H](CC(=O)O)c2ccc(-c3ccc(OCCOCCOCCOCCOCCN=[N+]=[N-])c4ccccc34)cc2)c1 [SM6.1-αvβ6, reference compound] | 1.6 | –
Cc1ccnc(NCCOC(=O)NCC(=O)N[C@@H](CC(=O)O)c2ccc(-c3ccc(OCCOCCOCCOCCOCCN=[N+]=[N-])c4ccccc34)cc2)c1 [III-h'] | – | 0.856
Cc1ccnc(NCCNC(=O)NCC(=O)N[C@@H](CC(=O)O)c2ccc(-c3ccc(OCCOCCOCCOCCOCCN=[N+]=[N-])c4ccccc34)cc2)c1 [III-i'] | – | 2.47
[N-]=[N+]=NCCOCCOCCOCCOCCOc1ccc(-c2ccc([C@H](CC(=O)O)NC(=O)CNC(=O)CCCc3ccc4c(n3)NCCC4)cc2)c2ccccc12 [III-k'] | 2.29 | –
[N-]=[N+]=NCCOCCOCCOCCOCCOc1ccc(-c2ccc([C@H](CC(=O)O)NC(=O)CNC(=O)CCc3ccc4c(n3)NCCC4)cc2)c2ccccc12 [III-l'] | 1.67 | –
[N-]=[N+]=NCCOCCOCCOCCOCCOc1ccc(-c2ccc([C@H](CC(=O)O)NC(=O)CNC(=O)CCCNc3nccs3)cc2)c2ccccc12 [III-j'] | – | 1.98
[N-]=[N+]=NCCOCCOCCOCCOCCOc1ccc(-c2ccc([C@H](CC(=O)O)NC(=O)CNC(=O)CCCNc3cc4c(cn3)CCCC4)cc2)c2ccccc12 [III-m'] | 1.47 | –
